Assay results from patent US7345050B2, “Pyrimidine compounds” (AstraZeneca AB, priority 2001, dated 2008).

Row | melting point | Structure (SMILES)
1 | 225 to 228 °C (dec.) | O=C(Cc1ccccc1)c1ccc(Nc2nccc(-c3cnc4ccccn34)n2)cc1 [Example 9, 2-[4-(1-Oxo-2-phenylethyl)anilino]-4-(imidazo-[1,2-a]-pyridin-3-yl)pyrimidine]
2 | 237 to 246 °C (dec.) | O=C(c1ccccc1)c1cccc(Nc2nccc(-c3cnc4ccccn34)n2)c1 [Example 10, 2-(3-Benzoylanilino)-4-(imidazo-[1,2-a]-pyridin-3-yl)pyrimidine]
3 | 238.9 to 239.2 °C | Cc1ccc(C(=O)c2ccc(Nc3nccc(-c4cnc5ccccn45)n3)cc2)cc1 [Example 3, 2-[4-(4-Methylbenzoyl)anilino)-4-(imidazo-[1,2-a]-pyridin-3-yl)pyrimidine]
4 | 194.7 to 196.7 °C | O=C(c1ccc(Nc2nccc(-c3cnc4ccccn34)n2)cc1)c1cccc(Cl)c1 [Example 5, 2-[4-(3-Chlorobenzoyl)anilino]-4-(imidazo-[1,2-a)-pyridin-3-yl)pyrimidine]
5 | 234 to 235 °C (dec.) | O=C(c1ccc(Nc2nccc(-c3cnc4ccccn34)n2)cc1)c1nccs1 [Example 13, 2-[4-(1,3-Thiazol-2-ylcarbonyl)anilino]-4-(imidazo-[1,2-a]-pyridin-3-yl)pyrimidine]
6 | 249 to 255 °C (dec.) | O=C(c1ccccc1)c1ccc(Nc2nccc(-c3cnc4ccccn34)n2)cc1 [Example 7, 2-(4-Benzoylanilino)-4-(imidazo-[1,2-a]-pyridin-3-yl)pyrimidine]

Continued, compound first:

Row | Structure (SMILES) | melting point
7 | OC(c1ccccc1)c1ccc(Nc2nccc(-c3cnc4ccccn34)n2)cc1 (racemic) [Example 8, (±)-2-[4-(Hydroxyphenylmethyl)anilino]-4-(imidazo-[1,2-a]-pyridin-3-yl)pyrimidine] | 213 to 216 °C
8 | N#Cc1ccc(C(=O)c2ccc(Nc3nccc(-c4cnc5ccccn45)n3)cc2)cc1 [Example 4, 2-[4-(4-Cyanobenzoyl)anilino]-4-(imidazo-[1,2-a]-pyridin-3-yl)pyrimidine] | > 230 °C (dec.)
9 | CCOc1cccc(C(=O)c2ccc(Nc3nccc(-c4cnc5ccccn45)n3)cc2)c1 [Example 6, 2-[4-(3-Ethoxybenzoyl)anilino]-4-(imidazo-[1,2-a]-pyridin-3-yl)pyrimidine] | 197.3 to 197.5 °C
10 | O=C(c1ccc(Nc2nccc(-c3cnc4ccccn34)n2)cc1)c1ccc2cc[nH]c2c1 [Example 11, 2-[4-(1 H-Indol-6-ylcarbonyl)anilino]-4-(imidazo-[1,2-a]-pyridin-3-yl)pyrimidine] | 173 to 178 °C (dec.)
11 | O=C(c1ccc(Nc2nccc(-c3cnc4ccccn34)n2)cc1)c1ccc(N2CCOCC2)cc1 [Example 1, 2-[4-(4-Morpholinobenzoyl)anilino]-4-(imidazo-[1,2-a]-pyridin-3-yl)pyrimidine] | > 237 °C (dec.)
